Source: patent US7166705B2 (Schering Corporation, priority 1999, dated 2007)

Experiments:
[1] = target: T1, SP9144 (Homo sapiens, UniProt Q9H3N8); assay: FLIPR intracellular Ca2+ assay, HEK-293-EBNA cells transfected with pCR3.1-SP9144; assay type: cell-based; conditions: for rank order of potency for activation of SP9144: transfected HEK-293-EBNA cells; for activation of SP9144 (change in intracellular Ca++, Fluo3 fluorescence): HEK-293-EBNA cells transfected with pCR3.1-SP9144, drugs 1×10^−4 M to 1×10^−9 M
T1 construct: expressed in transfected cells; host or cells: HEK-293-EBNA / HEK-293 cells, transient transfection with pCR3.1-SP9144
Method: (§1) 24 hours after transfection, cells were harvested and plated at 25,000 cells/well in clear bottom, black walled 96 well plates precoated with poly-D-lysine (Beckton-Dickenson) and cultured overnight in DMEM/10% FBS. For the assay, growth media was removed and replaced with 50 μl/well dye loading medium containing DMEM, 10% FBS, 20 mM HEPES pH 7.4, 2.5 mM probenecid (Sigma), […] Fluo3-AM (Sigma) (dissolved in 10% pluronic acid in DMSO). After 1 hr. at 37° C., the cell plates were washed 4 times with 250 μl Hanks Balanced Salt Solution (HBSS) lacking phenol red and containing 20 mM HEPES, 2.5 mM probenecid, and 0.1% BSA (wash buffer). A final volume of 100 μl/well of wash buffer was added to the plates, and the plates were placed into a Fluorescent Imaging Plate Reader (FLIPR, Molecular Devices) equilibrated to 37° C. […] Fluorescence was monitored once per second for 1 minute, and every 6 seconds for 2 minutes thereafter. After a 10 sec baseline measurement was established, drugs at 3× final concentration (1×10^−4 M to 1×10^−9 M) were added in a volume of 50 μl while the fluorescence continued to be monitored. Values extracted for data analysis represented the maximal fluorescence value minus the minimal fluorescence value detected following the drug addition. Drug stock solutions were initially dissolved in water (or DMSO) and diluted to 3× final concentration using wash buffer.

[2] = target: T1, SP9144; assay: [3H]histamine binding assay (saturation and competition), membranes of HEK-293 cells transfected with SP9144; conditions: for rank order of potency for blocking [3H]-histamine binding: competition with 18 nM [3H]histamine, 70 μg membrane protein; for block of [3H]-histamine binding: at concentrations of 10 μM
Method: (§2) Membrane preparation: HEK-293 cells transfected with SP9144 as described above were harvested by incubating in 5 mM EDTA/phosphate-buffered saline followed by repeated pipetting. The cells were centrifuged 5 min at 1000×g. The EDTA/PBS was decanted and an equal volume of ice-cold 50 mM Tris-HCl, pH 7.5, was added and cells were broken up with a Polytron (PT10 tip, setting 5, 30 sec). Nuclei and unbroken cells were sedimented at 1000×g for 10 min and then the supernatant was centrifuged at 50,000×g for 10 min. The supernatant was decanted, the pellet was resuspended by Polytron, a sample was taken for protein assay (bicinchoninic acid, Pierce), and the tissue was again centrifuged at 50,000×g. Pellets were stored frozen at −20° C.
(§3) Samples were filtered on GF/B filters and washed thrice with 2 ml of cold Tris buffer. Filters were dried in a microwave oven, impregnated with Meltilex wax scintillant, and counted at 45% efficiency. […] Curves were fit to the data with Prism (GraphPad Software) nonlinear least-squares curve-fitting program and Ki values were derived from IC50 values according to Cheng and Prusoff (Cheng, Y. C., and Prusoff, W. H. (1973) Relationship between the inhibition constant (Ki) and the concentration of inhibitor which causes 50 per cent inhibition (IC50) of an enzymatic reaction. Biochem. Pharmacol. 22, 3099–3108).

[3] = system: untransfected HEK-293 cells; assay: [3H]histamine binding to membranes from untransfected HEK-293 cells
Method: as §2, §3

[4] = system: mock transfected cells
Method: as §1

T1 sequence (Q9H3N8 whole entry): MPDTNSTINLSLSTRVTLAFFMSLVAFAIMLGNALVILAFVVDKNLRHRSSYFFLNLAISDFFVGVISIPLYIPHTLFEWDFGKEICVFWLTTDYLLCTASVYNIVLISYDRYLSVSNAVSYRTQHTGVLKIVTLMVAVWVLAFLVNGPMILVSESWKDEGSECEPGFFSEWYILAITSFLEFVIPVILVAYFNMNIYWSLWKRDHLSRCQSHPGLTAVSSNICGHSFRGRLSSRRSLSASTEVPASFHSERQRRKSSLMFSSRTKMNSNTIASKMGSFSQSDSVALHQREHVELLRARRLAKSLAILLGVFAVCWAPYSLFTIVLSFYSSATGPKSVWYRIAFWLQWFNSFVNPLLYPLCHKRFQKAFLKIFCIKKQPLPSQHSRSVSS

Row | Structure (SMILES) | rank order of potency for activation of SP9144 ([1]; FLIPR Ca++ assay) | activation of SP9144 (change in intracellular Ca++, Fluo3 fluorescence) [1] | rank order of potency for blocking [3H]-histamine binding [2] | further results
1 | C[C@@H](N)Cc1c[nH]cn1 [(R) α-methylhistamine] | Histamine>Nα-methylhistamine>(R) α-methylhistamine>>(S)α-methylhistamine (inactive) | able to activate SP9144 | imetit>clobenpropit>histamine>impromidine>Na-methylhistamine>burimamide>(R)-a-methylhistamine>thioperimide>>(S)-a-methylhistamine | 
2 | C[C@H](N)Cc1c[nH]cn1 [(S)α-methylhistamine] | Histamine>Nα-methylhistamine>(R) α-methylhistamine>>(S)α-methylhistamine (inactive) | inactive | imetit>clobenpropit>histamine>impromidine>Na-methylhistamine>burimamide>(R)-a-methylhistamine>thioperimide>>(S)-a-methylhistamine | 
3 | CNCCc1c[nH]cn1 [Nα-methylhistamine] | Histamine>Nα-methylhistamine>(R) α-methylhistamine>>(S)α-methylhistamine (inactive) | able to activate SP9144 | imetit>clobenpropit>histamine>impromidine>Na-methylhistamine>burimamide>(R)-a-methylhistamine>thioperimide>>(S)-a-methylhistamine | 
4 | NCCc1c[nH]cn1 [[^3H]-Histamine] |  |  |  | specific binding of [3H]-histamine to membranes ([2]; membranes from HEK-293 cells transfected with SP9144 DNA): bound specifically; specific binding of [3H]-histamine to membranes [3]: not to membranes from untransfected HEK-293 cells
5 | CNC(=S)NCCCCc1cnc[nH]1 [buramimide] | clobenpropit>imetit>impromidine>buramimide | able to activate SP9144, albeit with reduced efficacy | imetit>clobenpropit>histamine>impromidine>Na-methylhistamine>burimamide>(R)-a-methylhistamine>thioperimide>>(S)-a-methylhistamine | 
6 | CN(C)CCC(c1ccc(Cl)cc1)c1ccccn1 (centres unmarked) [chlorphenirimine] |  | completely inactive |  | block of [3H]-histamine binding [2]: not able to block
7 | CN/C(=N/CCSCc1nc[nH]c1C)NC#N [cimetidine] |  | completely inactive |  | block of [3H]-histamine binding [2]: not able to block
8 | NC(=NCc1ccc(Cl)cc1)SCCCc1cnc[nH]1 [clobenpropit] | clobenpropit>imetit>impromidine>buramimide | able to activate SP9144, albeit with reduced efficacy | imetit>clobenpropit>histamine>impromidine>Na-methylhistamine>burimamide>(R)-a-methylhistamine>thioperimide>>(S)-a-methylhistamine | 
9 | NCCc1ccc(O)c(O)c1 [dopamine] |  | not by other biogenic amines |  | 
10 | CNC[C@H](O)c1ccc(O)c(O)c1 [epinephrine] |  | not by other biogenic amines |  | 
11 | NCCc1c[nH]cn1 [histamine] | Histamine>Nα-methylhistamine>(R) α-methylhistamine>>(S)α-methylhistamine (inactive) | specifically activated | imetit>clobenpropit>histamine>impromidine>Na-methylhistamine>burimamide>(R)-a-methylhistamine>thioperimide>>(S)-a-methylhistamine | activation by histamine in mock transfected cells [4]: not observed
12 | N=C(N)SCCc1cnc[nH]1 [imetit] | clobenpropit>imetit>impromidine>buramimide | able to activate SP9144, albeit with reduced efficacy | imetit>clobenpropit>histamine>impromidine>Na-methylhistamine>burimamide>(R)-a-methylhistamine>thioperimide>>(S)-a-methylhistamine | 
13 | Cc1nc[nH]c1CSCCN=C(N)NCCCc1cnc[nH]1 [impromidine] | clobenpropit>imetit>impromidine>buramimide | able to activate SP9144, albeit with reduced efficacy | imetit>clobenpropit>histamine>impromidine>Na-methylhistamine>burimamide>(R)-a-methylhistamine>thioperimide>>(S)-a-methylhistamine | 
14 | NC[C@H](O)c1ccc(O)c(O)c1 [nor-epinephrine] |  | not by other biogenic amines |  | 
15 | NCCc1c[nH]c2ccc(O)cc12 [serotonin] |  | not by other biogenic amines |  | 
16 | S=C(NC1CCCCC1)N1CCC(c2cnc[nH]2)CC1 [thioperimide] |  | no activation of SP9144 | imetit>clobenpropit>histamine>impromidine>Na-methylhistamine>burimamide>(R)-a-methylhistamine>thioperimide>>(S)-a-methylhistamine | block of the activation of SP9144 by (R)α-methylhistamine ([1]; FLIPR Ca++ assay, antagonist mode): could be blocked in a dose dependent manner
